US5252495A, “Immunoassay for physostigmine” (priority 1992, dated 1993)
Structures can show the parent of a compound that is named as a salt.

Key:
[1] = biological target: Antibody from Mannich Immunogen; assay: RIA cross-reactivity: competition with labeled physostigmine for antibody from Mannich immunogen; type: binding, New Zealand white rabbits; details: 1:100, max 1000 ng tested
Protocol: (§1) Antibodies to the physostigmine-BSA immunogen were produced by injecting male New Zealand white rabbits with immunogens formed by either method. Prior to injection, the immunogen was emulsified with an equal volume of complete Freund's adjuvant, purchased from Difco Laboratories of Detroit, Mich. The initial immunization consisted of 0.8 mg of protein injected intracutaneously in multiple dorsal sites of the rabbits. Booster injections containing 0.8 mg of immunogen and incomplete Freund's adjuvant were administered every two months for the next six months. Antisera was collected one week after each booster injection from the central ear vein. The blood was allowed to clot at room temperature and then centrifuged at 1500×g for 15 minutes. The separated serum was stored frozen at -20° C. until assayed for the presence of physostigmine antibody.
(§2) In the assay procedure ^3 H-Physostigmine having specificity of 19.0 Ci/mmole and purchased from the Amersham Corp. of Arlington Heights, Ill., was used as tracer. […] Both standard and sample tubes were always analyzed in duplicate. The assay was carried out according to the protocol shown in Table 1 with the reagents were added to the assay tubes in the order shown.
(§3) According to the protocol for the RIA of the present invention, after the addition of antisera, the contents of the tubes were mixed and incubated for 3 hours at 4° C. The antigen which bound to the antibody was separated by adding saturated ammonium sulfate and centrifuging at 2500×g for 15 minutes. After aspiration of the supernatant, the precipitate was washed one time with 50% saturated ammonium sulfate; then the mixture was centrifuged and the supernatent removed. The precipitate was dissolved in 1.0 ml of distilled water, and the solution was transferred to a scintillation vial containing 10.0 ml of acquasol 2.
(§4) The radioactivity which was bound to the antibody was determined in counts per minute with a Beckman LS-3133P Liquid Scintillation Counter. […] The concentration of physostigmine is plotted on the horizontal axis, while the percent inhibition of binding radioactively labeled is plotted on the vertical axis. […] Concentrations of physostigmine in unknown samples were determined according to conventional calculations from the standard curve.
(§5) Competition of the compounds with labeled physostigmine (5000 dpm) for antibody binding sites was determined arbitrarily at 50% inhibition of the physostigmine on the standard curve. Each compound was tested for cross-reactivity with the antibody. The maximum concentration of each compound tested was 1000 ng.

[2] = biological target: Antibody from Diazo-coupled Immunogen; assay: RIA cross-reactivity: competition with labeled physostigmine for antibody from diazo-coupled immunogen; type: binding, New Zealand white rabbits; details: 1:150, max 1000 ng tested
Protocol: as §1
as §2, with “tracer. The dilution of tracer (5000 dpm), antibody (1:150) and physostigmine standards (100-10,000 pg) were made using 0.01M phosphate buffer containing 150 mM sodium chloride with a pH of 7.4.” for “tracer.”
as §3, §4, §5

[3] = system: antibodies to physostigmine; assay: Specificity of the antibodies to physostigmine (both antibodies; RIA, HPLC-RIA); type: binding, New Zealand white rabbits; details: for binding to the antibodies: RIA
Protocol: as §1
In the assay procedure ^3 H-Physostigmine having specificity of 19.0 Ci/mmole and purchased from the Amersham Corp. of Arlington Heights, Ill., was used as tracer. The dilution of tracer (5000 dpm), antibody (1:150) and physostigmine standards (100-10,000 pg) were made using 0.01M phosphate buffer containing 150 mM sodium chloride with a pH of 7.4. […] Both standard and sample tubes were always analyzed in duplicate. […]
The HPLC system consisted of Waters Associates liquid chromatograph equipped with a 6000 A solvent delivery system, a Model 441 absorbance detector, a U6K injector, a model 720 system controller, an Omni Scribe recorder (Houston Instruments, Houston, Tex.), a model cygnet Fraction collector (ISCO, Lincoln, Nebr.).
High pressure liquid chromatography (HPLC) was performed using a model C18 u Bondapak column (30 cm×0.39 cm. lid) (waters). The Uv detector was fixed at 245 nm with range set at 0.005 absorbance units full scale and flow rate of the mobile phase adjusted to 2 ml/min. […]
The column was operated at ambient temperature. […] Each residue was then reconstituted using the assay buffer and was analyzed for physostigmine by the RIA. […]

[4] = cited from earlier work

NCCc1c[nH]c2ccc(O)cc12 [Serotonin]
IC50 (50% inhibition of binding of 3H-physostigmine) [1]: > 1000 ng
IC50 (50% inhibition of binding of 3H-physostigmine) [2]: > 1000 ng

C[n+]1ccccc1C=NO [Paralidoxime]
IC50 (50% inhibition of binding of 3H-physostigmine) [1]: > 1000 ng
IC50 (50% inhibition of binding of 3H-physostigmine) [2]: > 1000 ng

CN(C)C(=O)Oc1ccc[n+](C)c1 [Pyridostigmine]
IC50 (50% inhibition of binding of 3H-physostigmine) [1]: > 1000 ng
IC50 (50% inhibition of binding of 3H-physostigmine) [2]: > 1000 ng
binding to the antibodies [3]: did not bind to the antibodies

CN1CC[C@@]2(C)c3cc(O)ccc3N(C)[C@@H]12 [Eseroline, eseroline]
IC50 (50% inhibition of binding of 3H-physostigmine) [1]: 200 ng
IC50 (50% inhibition of binding of 3H-physostigmine) [2]: 200 ng
amount required to displace radioactive physostigmine from the antibodies, relative to physostigmine [3]: ~150 times

COc1ccc2[nH]cc(CCNC(C)=O)c2c1 [Melatonin]
IC50 (50% inhibition of binding of 3H-physostigmine) [1]: > 1000 ng
IC50 (50% inhibition of binding of 3H-physostigmine) [2]: > 1000 ng

CN(C)C(=O)Oc1cccc([N+](C)(C)C)c1 [Neostigmine]
IC50 (50% inhibition of binding of 3H-physostigmine) [1]: > 1000 ng
IC50 (50% inhibition of binding of 3H-physostigmine) [2]: > 1000 ng
binding to the antibodies [3]: did not bind to the antibodies

CNC(=O)Oc1ccc2c(c1)[C@]1(C)CCN(C)[C@@H]1N2C [Physostigmine salts]
stability in alkaline solutions ([4]; alkaline solutions): unstable in alkaline solutions
solubility in water [4]: soluble in water
color change upon exposure to air and light ([4]; rate enhanced in the presence of moisture): gradually turn red upon exposure to air and light

CN1CCC2(C)c3cc4nc5c(=O)c6c(cc-5oc4cc3N(C)C12)N(C)C1N(C)CCC61C (centres unmarked) [Eserine blue]
IC50 (50% inhibition of binding of 3H-physostigmine) [1]: 575 ng
IC50 (50% inhibition of binding of 3H-physostigmine) [2]: 600 ng

CN1CC[C@@]2(C)C3=CC(=O)C(=O)C=C3N(C)[C@@H]12 [Rubreserine]
IC50 (50% inhibition of binding of 3H-physostigmine) [1]: 248 ng
IC50 (50% inhibition of binding of 3H-physostigmine) [2]: 224 ng

COc1ccc2c(c1)c(CC(=O)O)c(C)n2C(=O)c1ccc(Cl)cc1 [Indomethacin]
IC50 (50% inhibition of binding of 3H-physostigmine) [1]: > 1000 ng
IC50 (50% inhibition of binding of 3H-physostigmine) [2]: > 1000 ng

Eserine brown
IC50 (50% inhibition of binding of 3H-physostigmine) [1]: 625 ng
IC50 (50% inhibition of binding of 3H-physostigmine) [2]: 550 ng
